Laboratory results reported in patent US11229597B2, “Topical doxycycline composition” (HORUS PHARMA, priority 2017, dated 2022).

Test: Stability tests of doxycycline (active principle content by HPLC over time)
Format: physicochemical
Conditions: for stability of doxycycline in glycerol solution as a function of time: 25° C. (FIG. 2)
Method: The preparation in the form of an H/L emulsion containing the active principle and cyclodextrins in solution in the polyol is carried out according to the following method: • The liquid hydrophobic material/semi-solid hydrophobic material base (called phase A) is formulated by mixing in a water bath at 75° C. to make all components miscible. For the mass ratio of liquid hydrophobic material to semi-solid hydrophobic material 0/100, the semi-solid hydrophobic material is added directly to the mixer at 45° C. • The temperature of phase A is lowered to 45° C. and then phase A is transferred to the mixer whose temperature is 45° C. • The cyclodextrin is added to the polyol (called phase B) and magnetically stirred then the doxycyline hyclate is added to phase B and magnetically stirred until all components are completely dissolved, the temperature of the solution is increased to 45° C. • When phases A and B are at the same temperature, phase B is added to phase A under stirring to form an emulsion. • The emulsion is stirred for 30 minutes at 700 rpm at 45° C. and then the temperature of the entire mixture is reduced to 37° C. • The resulting emulsion is packaged and cooled to room temperature. In order to assay of the active principle in the formulation, the following extraction is carried out: • 1.0 g of the formula is diluted in 10.0 g of water and stirred with a suitable stirring system for 30 minutes at 45° C. • After filtration with a nylon filter at 0.45 μm, a dilution in the mobile phase is performed for a high-performance liquid chromatography assay. The active principle content is determined by the following high-performance liquid chromatography method: • Column: XTerra® RP 8 5 μm 4.6×250 mm • Mobile phase: • 65% water containing 0.13% oxalic acid • 22% acetonitrile • 13% methanol • Flow rate: 1.0 mL/min
Stability tests are performed at temperatures of 25° C. and 40° C.: […]

Molecule	stability of doxycycline in aqueous solution as a function of time (0.1% aqueous solution, 25° C. and 40° C. (FIG. 1))	stability of doxycycline in glycerol solution as a function of time (0.1% doxycycline hyclate in glycerol with β-cyclodextrins)	stability of doxycycline in glycerol solution as a function of time (0.1% doxycycline hyclate in glycerol without β-cyclodextrins)
C[C@H]1c2cccc(O)c2C(=O)C2=C(O)[C@]3(O)C(=O)C(C(N)=O)=C(O)[C@@H](N(C)C)[C@@H]3[C@@H](O)[C@@H]21 [doxycycline]	rapidly degraded	–	–
doxycycline hyclate	–	no or little degradation	no or little degradation
